According to patent US11053201B2, “Crystalline forms” (SYNGENTA PARTICIPATIONS AG, priority 2018, dated 2021):

Columns and labels:
[1] = temperature cycling test of FS200 flowable concentrate for seed treatment formulations, analysed under a microscope (40×) for crystal growth; format: physicochemical; conditions: for crystal growth: FS formulation
Procedure: As mentioned previously, it is crucial for the successful application of an agrochemical and/or pharmaceutical formulation that the crystalline form is stable in the particular formulation environment. Flowable concentrates for seed treatment (FS) formulations were prepared for both Form A and Form B. The only difference between the two formulations was the polymorphic form used, all of the other components were identical. The formulations were analyzed under a microscope (40×) for possible crystal growth which can have detrimental consequences such as thickening and potentially solidification of the formulation which can in turn lead to blockages in application equipment, e.g. in seed coating equipment or in spray nozzles in agricultural application machinery. Pictures were taken of the formulations at (i) start (FIGS. 13a and 14a), (ii) immediately after the temperature cycling test (FIGS. 13b and 14b) and (iii) two days at room temperature (RT) after the temperature cycling test (FIGS. 13c and 14c). The pictures are shown for the formulation comprising Form A in FIGS. 13a, 13b and 13c and the pictures for the formulations comprising Form B in FIGS. 14a, 14b and 14c. […] The recipe used is given in Table 8: The above formulations were tested for stability in a temperature cycling test as shown in FIG. 12. The formulations were then analyzed under the microscope (40×) to check for possible stability issues, in particular crystal growth and pictures were taken.

[2] = chemical stability of the polymorphic forms in the formulations tested; conditions: in the FS formulations tested
[3] = at start, before the temperature cycling test, microscope 40× (FIGS. 13a, 14a)
[4] = immediately after the temperature cycling test, microscope 40× (FIGS. 13b, 14b)
[5] = two days at room temperature after the temperature cycling test, microscope 40× (FIGS. 13c, 14c)

SMILES | crystal growth [1, 3] | crystal growth [1, 4] | crystal growth [1, 5] | resistance to crystal growth ([1]; when exposed to typical storage conditions) | chemical stability (compound degradation) [2]
O=C(N[C@H]1CC[C@H]1c1ccc(Cl)cc1Cl)c1cccnc1C(F)(F)F [Form B, (1S,2S) N-[2-(2,4-dichlorophenyl)cyclobutyl]-2-(trifluoromethyl)pyridine-3-carboxamide] | did not exhibit any crystal growth | no such crystal growth | no such crystal growth | surprisingly resistant to crystal growth | no compound degradation was observed
O=C(N[C@H]1CC[C@H]1c1ccc(Cl)cc1Cl)c1cccnc1C(F)(F)F [Form A, N-[(1S,2S)-2-(2,4-dichlorophenyl)cyclobutyl]-2-(trifluoromethyl) pyridine-3-carboxamide] | did not exhibit any crystal growth | clear crystal growth | even further crystal growth | – | –
